Measurements published in ChEMBL document CHEMBL1148879, “1,4-Dihydroindeno[1,2-c]pyrazoles as potent checkpoint kinase 1 inhibitors: extended exploration on phenyl ring substitutions and preliminary ADME/PK studies” (Bioorg Med Chem Lett, 2007).

What was measured:
[1] = target: T1, Serine/threonine-protein kinase Chk1 (Homo sapiens, UniProt O14757); test: Inhibition of recombinant CHK-mediated Cdc25C phosphorylation after 30 mins
T1 sequence (O14757 whole entry): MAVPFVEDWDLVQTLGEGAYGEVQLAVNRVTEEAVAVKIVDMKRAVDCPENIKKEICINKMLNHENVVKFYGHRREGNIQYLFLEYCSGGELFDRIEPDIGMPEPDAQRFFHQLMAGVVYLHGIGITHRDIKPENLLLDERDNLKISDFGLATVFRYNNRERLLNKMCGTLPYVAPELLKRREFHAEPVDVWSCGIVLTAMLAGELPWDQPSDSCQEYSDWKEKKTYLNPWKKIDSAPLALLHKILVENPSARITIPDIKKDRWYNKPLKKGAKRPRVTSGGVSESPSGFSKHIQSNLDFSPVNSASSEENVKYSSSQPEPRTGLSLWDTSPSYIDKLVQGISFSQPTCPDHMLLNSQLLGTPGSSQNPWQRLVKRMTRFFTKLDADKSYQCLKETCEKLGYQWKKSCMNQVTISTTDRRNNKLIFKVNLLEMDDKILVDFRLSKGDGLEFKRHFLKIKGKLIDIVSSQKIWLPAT

HeLa = test: cells; details: Homo sapiens
Description: Antiproliferative activity against human HeLa cells by MTS assay

[2] = Antiproliferative activity against human H1299 cells by FACS assay; format: functional, cell-based; details: NCI-H1299
[3] = Plasma clearance in mouse at 3 mg/kg, iv; format: ADME, organism-based; parameters: dose 3 mg/kg, route intravenous
[4] = Volume of distribution in mouse at 3 mg/kg, iv; format: ADME, organism-based; parameters: dose 3 mg/kg, route intravenous; details: in vivo, read-out: Vdss
[5] = Half life in mouse at 3 mg/kg, iv; format: ADME, organism-based; parameters: dose 3 mg/kg, route intravenous; details: in vivo
[6] = (§1) AUC in mouse at 3 mg/kg, iv; format: ADME, organism-based, Plasma; parameters: dose 3 mg/kg, route intravenous; details: plasma
[7] = Cmax in mouse at 10 mg/kg, ip; format: ADME, organism-based; parameters: dose 10 mg/kg, route intraperitoneal; details: in vivo
[8] = AUC in mouse at 10 mg/kg, ip; format: ADME, organism-based; parameters: dose 10 mg/kg, route intraperitoneal; details: plasma
[9] = Cmax in mouse at 10 mg/kg, po; format: ADME, organism-based; parameters: dose 10 mg/kg, route oral; details: in vivo
[10] = Oral bioavailability in mouse at 10 mg/kg; format: ADME, organism-based; details: in vivo
Mus musculus = test: as §1; format: ADME, organism-based, Plasma; parameters: dose 3 mg/kg, route intravenous; details: in vivo
[11] = AUC in mouse at 10 mg/kg, po; format: ADME, organism-based; parameters: dose 10 mg/kg, route oral; details: plasma
[12] = Metabolic stability in rat liver microsomes assessed as half life at 1 uM; format: ADME, Microsome
[13] = Apparent permeability across human Caco-2 cells at 1 uM; format: ADME, cell-based
[14] = Metabolic stability in rat liver microsome assessed as […] at 1 uM; format: ADME; details: liver microsomes, read-out: Activity (converted)
[15] = Metabolic stability in rat liver microsomes assessed as compound remaining at 1 uM after 30 mins; format: ADME, Microsome; details: read-out: Stability
[16] = Aqueous solubility at neutral pH; format: physicochemical; details: buffer

Row | SMILES | IC50 [1] | EC50 (HeLa) | EC50 [2] | further results
1 | CC(=O)Nc1cccc2c1Cc1c(-c3ccc(-c4ccc(O)cc4)cc3)n[nH]c1-2 | 0.0055 µM | – | – | –
2 | OCc1cccc2c1Cc1c(-c3ccc(-c4ccc(O)cc4)cc3)n[nH]c1-2 | 0.0078 µM | > 59 µM | – | –
3 | O=C(N[C@H]1CC[C@H](O)CC1)c1cccc2c1Cc1c(-c3ccc(-c4ccc(O)cc4)cc3)n[nH]c1-2 | > 10 µM | – | – | –
4 | OCc1ccc2c(c1)-c1[nH]nc(-c3ccc(-c4ccc(O)cc4)cc3)c1C2 | 0.0044 µM | > 59 µM | > 10 µM | –
5 | O=C(NCCO)c1ccc2c(c1)-c1[nH]nc(-c3ccc(-c4ccc(O)cc4)cc3)c1C2 | 0.005 µM | – | – | –
6 | CNC(=O)c1ccc2c(c1)-c1[nH]nc(-c3ccc(-c4ccc(O)cc4)cc3)c1C2 | 0.0023 µM | – | – | –
7 | O=C(c1ccc2c(c1)-c1[nH]nc(-c3ccc(-c4ccc(O)cc4)cc3)c1C2)N1CCOCC1 | 0.091 µM | – | – | –
8 | COc1cc2c(cc1C(=O)N[C@H]1CC[C@H](O)CC1)C(C)(C)c1c(-c3ccc(-c4ccc(O)cc4)cc3)n[nH]c1-2 | 0.018 µM | 8.6 µM | > 10 µM | –
9 | COc1cc2c(cc1C(=O)NCc1ccccn1)Cc1c(-c3ccc(-c4ccc(O)c(F)c4)cc3)n[nH]c1-2 | 0.027 µM | – | – | clearance [3]: 60 mL/min/kg; Vd [4]: 2.4 L/kg; half-life [5]: 27.6 min; AUC [6]: 1700 ng·h/mL; Cmax [7]: 2800 nM; AUC [8]: 3800 ng·h/mL; Cmax [9]: < 50 nM; bioavailability [10]: 0%
10 | COc1cc2c(cc1C(=O)NCc1ccccn1)Cc1c(-c3ccc(-c4ccc(O)c(C#N)c4)cc3)n[nH]c1-2 | 9.09 µM | – | – | –
11 | COc1cc2c(cc1CN1CCN(C)CC1)Cc1c(-c3ccc(-c4ccc(O)c(F)c4)cc3)n[nH]c1-2 | 0.028 µM | – | – | Vd [4]: 9.2 L/kg; half-life [5]: 36 min; AUC (Mus musculus): 690 ng·h/mL; Cmax [7]: 1300 nM; AUC [8]: 1600 ng·h/mL; Cmax [9]: 80 nM; AUC [11]: 130 ng·h/mL; bioavailability [10]: 6%
12 | COc1cc2c(cc1CN1CCN(C)CC1)Cc1c(-c3ccc(-c4ccc(O)c(C#N)c4)cc3)n[nH]c1-2 | > 10 µM | – | – | –
13 | O=C(NCc1ccccn1)c1ccc2c(c1)Cc1c(-c3ccc(-c4ccc(O)cc4)cc3)n[nH]c1-2 | – | 23 µM | > 10 µM | Vd [4]: 4.7 L/kg; half-life [5]: 36 min; AUC (Mus musculus): 1200 ng·h/mL; Cmax [7]: 2000 nM; AUC [8]: 4400 ng·h/mL; Cmax [9]: 250 nM; AUC [11]: 160 ng·h/mL; bioavailability [10]: 4%; half-life at 1 µM [12]: 25 min; Papp at 1 µM [13]: 13.3 ×10⁻⁶ cm/s; k el at 1 µM [14]: 0.00049 s⁻¹; remaining at 0.5 h, 1 µM [15]: 40%; solubility [16]: < 0.03 µg/mL
14 | O=C(CNCc1ccncc1)Nc1ccc2c(c1)Cc1c(-c3ccc(-c4ccc(O)cc4)cc3)n[nH]c1-2 | 0.0064 µM | – | – | –
15 | CC(C)(C)NCc1ccc2c(c1)-c1[nH]nc(-c3ccc(-c4ccc(O)cc4)cc3)c1C2 | 0.034 µM | – | – | –
16 | OCCNCc1ccc2c(c1)-c1[nH]nc(-c3ccc(-c4ccc(O)cc4)cc3)c1C2 | 0.012 µM | – | – | –
17 | CN(C)CCNCc1ccc2c(c1)-c1[nH]nc(-c3ccc(-c4ccc(O)cc4)cc3)c1C2 | 0.0052 µM | > 59 µM | > 10 µM | –
18 | Oc1ccc(-c2ccc(-c3n[nH]c4c3Cc3cc(O)ccc3-4)cc2)cc1 | 0.0044 µM | – | – | –
19 | OCc1ccc2c(c1)Cc1c(-c3ccc(-c4ccc(O)cc4)cc3)n[nH]c1-2 | 0.0077 µM | > 59 µM | – | –
20 | CC(C)(C)CNCc1cccc2c1Cc1c(-c3ccc(-c4ccc(O)cc4)cc3)n[nH]c1-2 | 0.209 µM | – | – | –
21 | Oc1ccc(-c2ccc(-c3[nH]nc4c3Cc3cccc(O)c3-4)cc2)cc1 | 0.671 µM | – | – | –
22 | O=C(NCc1ccccc1)c1cccc2c1Cc1c(-c3ccc(-c4ccc(O)cc4)cc3)n[nH]c1-2 | > 10 µM | – | – | –
23 | Oc1ccc(-c2ccc(-c3n[nH]c4c3Cc3ccc(CNCCN5CCCC5)cc3-4)cc2)cc1 | 0.0071 µM | 2.8 µM | – | –
24 | Oc1ccc(-c2ccc(-c3n[nH]c4c3Cc3ccccc3-4)cc2)cc1 | 1.37 µM | – | – | –
25 | CN1CCN(Cc2ccc3c(c2)Cc2c(-c4ccc(-c5ccc(O)cc5)cc4)n[nH]c2-3)CC1 | 0.024 µM | 1.7 µM | > 10 µM | Vd [4]: 3.4 L/kg; half-life [5]: 30 min; AUC (Mus musculus): 1500 ng·h/mL; Cmax [7]: 1100 nM; AUC [8]: 2700 ng·h/mL; Cmax [9]: 90 nM; AUC [11]: 450 ng·h/mL; bioavailability [10]: 9%; solubility [16]: < 0.03 µg/mL
26 | COc1cc2c(cc1C(=O)N1CCN(C)CC1)Cc1c(-c3ccc(-c4ccc(O)cc4)cc3)n[nH]c1-2 | 0.0023 µM | – | – | –

More lines, in order of falling IC50 [1], values ahead:

Row | IC50 [1] | EC50 (HeLa) | SMILES | EC50 [2] | further results
27 | 0.0021 µM | 1.7 µM | CCCCNCC(=O)Nc1ccc2c(c1)Cc1c(-c3ccc(-c4ccc(O)cc4)cc3)n[nH]c1-2 | > 10 µM | –
28 | 0.0012 µM | > 59 µM | O=C(CN[C@H]1CC[C@H](O)CC1)Nc1ccc2c(c1)Cc1c(-c3ccc(-c4ccc(O)cc4)cc3)n[nH]c1-2 | > 10 µM | –
29 | 0.0011 µM | – | COc1cc2c(cc1CN1CCC(O)CC1)Cc1c(-c3ccc(-c4ccc(O)cc4)cc3)n[nH]c1-2 | – | –
30 | 0.00083 µM | – | COc1cc2c(cc1C(=O)NCCN1CCCC1)Cc1c(-c3ccc(-c4ccc(O)cc4)cc3)n[nH]c1-2 | – | –
31 | 0.00074 µM | > 59 µM | O=C(CNCCO)Nc1ccc2c(c1)Cc1c(-c3ccc(-c4ccc(O)cc4)cc3)n[nH]c1-2 | > 10 µM | –
32 | 0.00056 µM | 0.62 µM | COc1cc2c(cc1CN[C@H]1CC[C@H](O)CC1)Cc1c(-c3ccc(-c4ccc(O)cc4)cc3)n[nH]c1-2 | 3.1 µM | –
33 | 0.00055 µM | – | COc1cc2c(cc1C(=O)N1CCOCC1)Cc1c(-c3ccc(-c4ccc(O)cc4)cc3)n[nH]c1-2 | – | –
34 | 0.00051 µM | – | COc1cc2c(cc1CN1CCN(C)CC1)Cc1c(-c3ccc(-c4ccc(O)cc4)cc3)n[nH]c1-2 | – | –
35 | 0.00043 µM | – | COc1cc2c(cc1CNCCO)Cc1c(-c3ccc(-c4ccc(O)cc4)cc3)n[nH]c1-2 | – | –
36 | 0.00024 µM | 1.4 µM | COc1cc2c(cc1C(=O)N1CCC(O)CC1)Cc1c(-c3ccc(-c4ccc(O)cc4)cc3)n[nH]c1-2 | 5.2 µM | –
37 | 0.00024 µM | 38 µM | COc1cc2c(cc1C(=O)N[C@H]1CC[C@H](O)CC1)Cc1c(-c3ccc(-c4ccc(O)cc4)cc3)n[nH]c1-2 | > 10 µM | clearance [3]: 183 mL/min/kg; Vd [4]: 6 L/kg; half-life [5]: 23.4 min; AUC [6]: 570 ng·h/mL; Cmax [7]: 1500 nM; AUC [8]: 4200 ng·h/mL; Cmax [9]: < 100 nM; bioavailability [10]: 0%
38 | 0.00021 µM | 0.91 µM | COc1cc2c(cc1CNCCN1CCCC1)Cc1c(-c3ccc(-c4ccc(O)cc4)cc3)n[nH]c1-2 | 5.1 µM | –
